System: reporter gene (firefly luciferase) expression in the liver
Experiment: Luciferase expression in mouse liver following tail vein injection of mRNA lipid nanoparticles
Format: in vivo
Settings: increasing concentration of compound I-5 in the lipid nanoparticle
Procedure: Lipid nanoparticles were formulated with short chain PEG lipid at various molar ratios as described in Formulation Example 1. Relative activity was determined by measuring luciferase expression in the mouse liver 4 hours following administration via tail vein injection.
Increasing concentration of compound I-5 reduced the overall expression of the reporter gene (firefly luciferase) in the liver (see, e.g., Table 4). Lipid nanoparticle systems that included compound I-5 at a concentration of 5 mol % reduced the amount of expression by ˜50% while lipid nanoparticle systems including compound I-5 at 10 mol % reduced to 20% of benchmark (lipid nanoparticle system with no compound I-5). […] However, 2.5 mol % compound I-5 changed the expression kinetic. […] Lipid nanoparticle systems with compound I-5 at a concentration of 2.5 mol % also provided a benefit of prolonged expression since at 16 hours the same system had ˜4-fold expression in comparison to the lipid nanoparticle system with no compound I-5.

**Q.** For `CCCCCCCCCCCCCCN(CCCCCCCCCCCCCC)C(=O)CCC(=O)OCCOCCOCCOC` [compound I-5], which “overall expression of the reporter gene (firefly luciferase) in the liver” value is on record?
**A.** The value was “reduced”.
